Like-named read-outs stand apart in the source and are kept apart here.
Columns and labels:
human MC-4R = molecular target: T1, human MC-4R (Homo sapiens, UniProt P32245); assay: Biological Assay: inhibition of AgRP functional interaction with MC-4R in presence of αMSH (cAMP production); type: cell-based; details: HEK293 cells expressing human MC-4R, AgRP83-132 and αMSH present
T1 construct: expressed in transfected cells
Procedure: The following method is illustrative of techniques that may be employed to measure the ability of the compounds of Formula (I) to functionally modulate the binding of AgRP to melanocortin receptors. In particular, the assay below measures the ability of compounds of Formula (I) or pharmaceutically acceptable salts thereof to functionally modulate the binding of AgRP to MC-4R in the presence of a MC-4R agonist, such as alpha-MSH.
HEK293 cells stably expressing human MC-4R receptors were grown in high glucose Dulbecco's Modified Eagle Medium (DMEM) with 4500 mg glucose/L, L-glutamine, NaHCO3, pyrdoxin HCl, 10 mM HEPES (pH 7.4), 0.1 mM NEAA (non-essential amino acid medium) (GIBCO Cat#11140-050), 10% fetal bovine serum and 700 μg/mL G418. Cells were grown in T-225 flasks at 37° C. with CO2 and humidity control.
On the day of assay, cells were washed twice with phosphate buffered saline without calcium and magnesium (PBS) and incubated with 10 mL PBS until the cells were detached from the flask. The detached cells were centrifuged at 240 g for 5 min. The cell pellet was re-suspended in assay buffer (Earle's balanced salt solution (Sigma E3024) supplemented with 10 mM HEPES, pH 7.4, 0.5 mM IBMX and protease inhibitor cocktail (Roche, 1 complete tablet/75 mL buffer)).
The inhibitory or enhancement effect of compounds on AgRP activity was measured in a multi-component assay containing testing compounds, AgRP83-132 (human, Phoenix Pharma, cat no. 003-53), cells expressing MC-4R, and αMSH (Bachem, cat no. H-1075). Test compounds, AgRP and αMSH were diluted with assay buffer. Test compounds and AgRP were mixed to 4 times of the final concentration and incubated at room temperature for 30 min. Five μL of testing compound/AgRP solution followed with 10 μL of cells (20,000 cells/well) were added to each well of a 384-well reaction plate before 5 μL of αMSH was added. Cells were stimulated with αMSH for an additional 30 min at 37° C.
Stimulation of cells was stopped by adding a lysis buffer and cells were lysed. The intracellular concentration of cAMP may be measured by various techniques known to one of skill in the art including, but not limited to, fluorescence polarization (FP) and time-resolved fluorescence (TRF).
The inhibition was shown by an increase in MC-4R mediated cAMP production.

[1] = Stability in Liver Microsomes (human); type: in vitro ADME; details: 1 μM, 0.5 mg protein/mL, NADPH, 60 minutes, 37° C., pH 7.4
Procedure: (§1) Various compounds were tested for their stability in human, monkey, dog, rat, and mouse liver microsomes. At a final concentration of 1 μM, compounds were incubated with either human, monkey, dog, rat, or mouse liver microsomes (0.5 mg protein/mL) in the presence of an NADPH-solution for 60 minutes at 37° C., pH 7.4 in phosphate buffer. Incubations were performed in duplicate. Reactions were terminated by the addition of methanol. The incubation solution was vortexed and transferred into a 96-well plate. The plate was sealed and centrifuged at approximately 3500 rpm for approximately 10 minutes. After centrifugation, the plate was loaded into 96-well plate autosampler and analyzed by LC/MS. Values are reported as percent of compound remaining after 1 hour.

[2] = Stability in Liver Microsomes (monkey); type: in vitro ADME; details: 1 μM, 0.5 mg protein/mL, NADPH, 60 minutes, 37° C., pH 7.4
Procedure: as §1

[3] = Stability in Liver Microsomes (dog); type: in vitro ADME; details: 1 μM, 0.5 mg protein/mL, NADPH, 60 minutes, 37° C., pH 7.4
Procedure: as §1

[4] = Stability in Liver Microsomes (rat); type: in vitro ADME; details: 1 μM, 0.5 mg protein/mL, NADPH, 60 minutes, 37° C., pH 7.4
Procedure: as §1

[5] = Stability in Liver Microsomes (mouse); type: in vitro ADME; details: 1 μM, 0.5 mg protein/mL, NADPH, 60 minutes, 37° C., pH 7.4
Procedure: as §1

[6] = Pharmacokinetic screening in rats (plasma and brain); details: rat, 5 mg/kg PO; for concentration at 2 h: male, Sprague Dawley, po, 5 mg/kg, 2 hour time point; for Brain - 24 hours AUC (h * ng/g): 24 hour study
[7] = read-out: Average EC50 (nM) in Biological Assay
[8] = plasma, Plasma - 2 hours (ng/mL)

T1 sequence (P32245 whole entry): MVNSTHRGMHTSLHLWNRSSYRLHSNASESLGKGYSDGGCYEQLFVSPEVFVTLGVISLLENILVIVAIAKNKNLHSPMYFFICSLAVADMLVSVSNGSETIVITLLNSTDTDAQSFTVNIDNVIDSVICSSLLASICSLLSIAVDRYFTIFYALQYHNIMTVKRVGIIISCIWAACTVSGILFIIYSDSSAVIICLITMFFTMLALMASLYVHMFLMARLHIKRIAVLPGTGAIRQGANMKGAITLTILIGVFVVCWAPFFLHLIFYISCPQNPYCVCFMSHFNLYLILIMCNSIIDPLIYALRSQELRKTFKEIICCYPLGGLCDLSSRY

Stability in Liver Microsomes (% remaining after 1 hour incubation) Human [1] [%] | Stability in Liver Microsomes (% remaining after 1 hour incubation) Monkey [2] [%] | Stability in Liver Microsomes (% remaining after 1 hour incubation) Dog [3] [%] | Stability in Liver Microsomes (% remaining after 1 hour incubation) Rat [4] [%] | Stability in Liver Microsomes (% remaining after 1 hour incubation) Mouse [5] [%] | EC50 (human MC-4R; [7]) [nM] | concentration at 2 h ([6]; brain, Brain - 2 hours (ng/g)) [ng/g] | concentration at 2 h [6, 8] [ng/mL] | Compound | EC50 (human MC-4R; Average EC50 (nM) in Biological Assay) [nM] | Brain - 24 hours AUC (h * ng/g) [6]
84 | 47 | 78 | 66 | 86 | 372 |  |  | CCCC1CCC(c2csc(N(CCC(=O)O)Cc3ccc(C)s3)n2)CC1 (centres unmarked) [Example 21, 3-{(5-Methyl-thiophen-2-ylmethyl)-[4-(4-propyl-cyclohexyl)-thiazol-2-yl]-amino}-propionic acid] |  | 
71 | 56 | 94 | 15 | 60 | 366 |  |  | Cc1ccc(CN(CCC(=O)O)c2nc(C3CCC(F)(F)CC3)cs2)s1 [Example 23, Sodium; 3-[[4-(4,4-difluoro-cyclohexyl)-thiazol-2-yl]-(5-methyl-thiophen-2-ylmethyl)-amino]-propionate] |  | 
99 | 77 | 69 | 69 | 81 | 80 | 552 | 10500 | Cc1cc(CN(CCC(=O)O)c2nc(C3CCC(C(C)(C)C)CC3)cs2)c(C)s1 (centres unmarked) [Example 25, 3-[[4-(4-tert-Butyl-cyclohexyl)-thiazol-2-yl]-(2,5-dimethyl-thiophen-3-ylmethyl)-amino]-propionic acid] |  | +++ (values between 20,000 and 10,000 h*ng/g)
83 | 88 | 94 | 83 | 91 | 1570 |  |  | COC1CCC(c2csc(N(CCC(=O)O)Cc3ccc(C)s3)n2)CC1 (centres unmarked) [Example 31, 3-[[4-(4-Methoxy-cyclohexyl)-thiazol-2-yl]-(5-methyl-thiophen-2-ylmethyl)-amino]-propionic acid] |  | 
61 | 85 | 36 | 67 | 90 | 219 |  |  | Cc1cc(CN(CCC(=O)[O-])c2nc(C3CCC(c4ccccc4)CC3)cs2)c(C)s1.[Na+] (centres unmarked) [Example 40, Sodium; 3-{(2,5-dimethyl-thiophen-3-ylmethyl)-[4-(4-phenyl-cyclohexyl)-thiazol-2-yl]-amino}-propionate] |  | 
49 | 78 | 80 | 64 | 68 | 70 |  |  | Cc1ccc(CN(CCC(=O)O)c2nc(C3CCC(C)(C)CC3)cs2)s1 [Example 55, 3-[[4-(4,4-Dimethyl-cyclohexyl)-thiazol-2-yl]-(5-methyl-thiophen-2-ylmethyl)-amino]-propionic acid] |  | 
92 | 83 | 99 | 86 | 87 | 191 |  |  | Cc1ccc(CN(CCC(=O)[O-])c2nc(C3CCC(C4CCCCC4)CC3)cs2)s1.[Na+] (centres unmarked) [Example 60, Sodium; 3-[(4-bicyclohexyl-4-yl-thiazol-2-yl)-(5-methyl-thiophen-2-ylmethyl)-amino]-propionate] |  | 
68 | 13 | 84 | 40 | 74 | 246 |  |  | Cc1ccc(CN(CCC(=O)[O-])c2nc(C3CCC(c4ccc(F)cc4)CC3)cs2)s1.[Na+] (centres unmarked) [Example 61, Sodium; 3-[{4-[4-(4-fluoro-phenyl)-cyclohexyl]-thiazol-2-yl}-(5-methyl-thiophen-2-ylmethyl)-amino]-propionate] |  | 
40 | 2 | 2 | 54 | 52 |  | 1140 | 3850 | CC(C)c1ccc(-c2csc(N(CCC(=O)[O-])Cc3cccs3)n2)cc1.[Na+] [Reference Compound A, Sodium 3-{[4-(4-isopropyl-phenyl)-thiazol-2-yl]-thiophen-2-ylmethyl-amino}-propionate, reference compound] |  | + (values less than 5,000 h*ng/g)
51 | 76 | 47 | 26 | 79 |  |  |  | CC(C)(C)[C@H]1CC[C@H](c2csc(N(CCC(=O)O)Cc3cccs3)n2)CC1 [Reference Compound D, Sodium 3-[[4-(trans-4-tert-butyl-cyclohexyl)-thiazol-2-yl]-(thiophen-2-ylmethyl)-amino]-propionate, reference compound] |  | 
60 | 38 | 50 | 52 | 51 |  |  |  | O=C([O-])CCN(Cc1cccs1)c1nc(C2CCC(c3ccccc3)CC2)cs1.[Na+] (stereo not drawn) [Reference Compound E, Sodium 3-[[4-(trans-4-phenyl-cyclohexyl)-thiazol-2-yl]-(5-thiophen-2-ylmethyl)-amino]-propionate, reference compound] |  | 
40 | 5 | 45 | 27 | 30 |  |  |  | CCc1ccc(CN(CCC(=O)[O-])c2nc(-c3ccc(N4CCCC4)cc3)cs2)s1.[Na+] [Reference Compound F, reference compound] |  | 

Compound | Stability in Liver Microsomes (% remaining after 1 hour incubation) Human [1] [%] | Stability in Liver Microsomes (% remaining after 1 hour incubation) Monkey [2] [%] | Stability in Liver Microsomes (% remaining after 1 hour incubation) Dog [3] [%] | Stability in Liver Microsomes (% remaining after 1 hour incubation) Rat [4] [%] | Stability in Liver Microsomes (% remaining after 1 hour incubation) Mouse [5] [%] | EC50 (human MC-4R; [7]) [nM] | concentration at 2 h ([6]; brain, Brain - 2 hours (ng/g)) [ng/g] | concentration at 2 h [6, 8] [ng/mL] | EC50 (human MC-4R; Average EC50 (nM) in Biological Assay) [nM] | Brain - 24 hours AUC (h * ng/g) [6]
CCC1CCC(c2csc(N(CCC(=O)O)Cc3ccc(C)s3)n2)CC1 (centres unmarked) [Example 19, 3-[[4-(4-Ethyl-cyclohexyl)-thiazol-2-yl]-(5-methyl-thiophen-2-ylmethyl)-amino]-propionic acid] | 43 | 60 | 87 | 52 | 73 |  |  |  | 386 | 

Source: patent publication US8563742B2, “Substituted aminothiazole derivatives, pharmaceutical compositions, and methods of use” (High Point Pharmaceuticals, LLC, priority 2008, dated 2013)
